Measurements from article PMC5963640 (Journal of Ocular Pharmacology and Therapeutics, 2018).

How the values were obtained:
[1] = target: norepinephrine transporter (NET) (Homo sapiens, UniProt P23975); assay: NET inhibitory activity (data not shown)
[2] = target: T1, calcium/calmodulin-dependent protein kinase II Alpha (CAMK2A) (Homo sapiens, UniProt Q9UQM7); assay: Kinase-Glo luminescent protein kinase assay, CAMK2A; format: biochemical; conditions: average of ≥3 replicate experiments; read-out: CAM2A Ki
T1 construct: purchased Invitrogen/Life Technologies

[3] = target: T2, protein kinase C-theta (PKC-theta) (Homo sapiens, UniProt Q04759); assay: Kinase-Glo luminescent protein kinase assay, PKC-theta; format: biochemical; conditions: average of ≥3 replicate experiments; read-out: PKCT Ki
T2 construct: purchased Invitrogen/Life Technologies

[4] = system: primary porcine TM (PTM) cells; assay: Disruption of actin stress fibers, high-content screening; format: cell-based; conditions: Sus scrofa, 6 h, read-out: PTM IC50 (disruption of actin stress fibers)
[5] = In vitro corneal metabolism, rabbit; format: in vitro ADME, Dutch Belted rabbits; conditions: Dutch Belted, corneal tissue punches, 37°C, pH 6.5, read-out: t1/2 of corneal metabolism
Protocol: (§1) Enucleated pig eyes (n = 3) were harvested at a local abattoir, stored on ice, and used within 4 h of slaughter. For eyes harvested from beagle dogs (n = 3; Calvert Laboratories, Pittston, PA), Dutch Belted rabbits (n = 3; Robinson Services, Mockesville, NC), and cynomolgus monkeys (n = 4; Covance, Madison, WI), intact globes were stored in K-Sol corneal preservation buffer[31] under cold conditions and used within 24 h of sacrifice. Human corneas (n = 3) were acquired from The Eye Bank for Sight Restoration (New York, NY). The weights of the corneal punches were approximately the same for the dog, pig, human, and rabbit, whereas monkey corneal punches were approximately half of the weight of the others. Corneal punches were stored in phosphate-buffered saline and used within 1 h of preparation.
(§2) Samples were incubated at 37°C and reactions were subsequently terminated at appropriate time intervals by transferring a 100 μL aliquot of solution to an equal volume of cold acetonitrile followed by thorough trituration. The samples were centrifuged at 10,000 g for 10 min and the supernatants analyzed by high performance liquid chromatography (HPLC) using a Waters Alliance 2695 HPLC (Milford, MA) equipped with a Symmetry C18 4.6 × 75 mm 3.5 μm column.

[6] = system: normotensive Dutch Belted rabbits; assay: Ocular hypotensive activity (IOP) in rabbits; conditions: for maximal IOP reduction: once daily, Day 3, at 4 or 8 h after dosing
[7] = system: normotensive Formosan Rock monkeys; assay: Ocular hypotensive activity (IOP) in monkeys; conditions: for maximal IOP reduction: once daily, Day 3, at 4 or 8 h after dosing; for IOP reduction: Day 3
[8] = system: live monkeys; parameters: method as in PMID 25535688; conditions: 6 h after topical dosing, 0.04%; cited from earlier work
[9] = In vitro corneal metabolism, human; format: in vitro ADME; conditions: corneal tissue punches, 37°C, pH 6.5, read-out: t1/2 of corneal metabolism
Protocol: as §1, §2

[10] = system: Dutch Belted rabbits; assay: Ocular tolerability (modified Draize, hyperemia score) in rabbits; conditions: 0.005%, 0.01%, 0.02% and 0.04% solutions
[11] = system: transformed human TM (HTM) cells (TM-1); assay: Disruption of focal adhesions, high-content screening; format: cell-based; conditions: 6 h, read-out: HTM IC50 (disruption of focal adhesions)
[12] = system: primary HTM cells; assay: TGF-β2-induced expression of fibrogenic markers, immunofluorescence; format: cell-based, human; conditions: 500 nM netarsudil plus 8 ng/mL TGF-β2, 24 h
Protocol: Cells were grown on gelatin (2%)-coated coverslips until they were semi-confluent. […] The cells were then assessed for induction of the fibrogenic markers α-smooth muscle actin (α-SMA), Collagen I, and fibroblast-specific protein 1 (FSP1) using immunofluorescence staining as previously described.[29] Mouse monoclonal antibody against α-SMA was purchased from Sigma-Aldrich, rabbit anti-FSP1 antibody from EMD Millipore (Billerica, MA), and rabbit anti-Collagen I antibody from Abcam (Cambridge, MA).

[13] = In vitro corneal metabolism, pig; format: in vitro ADME; conditions: corneal tissue punches, 37°C, pH 6.5, read-out: t1/2 of corneal metabolism
Protocol: as §1, §2

[14] = Ocular metabolism: levels in aqueous humor after topical ocular dosing; format: in vivo, New Zealand rabbits
Protocol: In groups 1 and 2, the test article was dosed only once, and 100 μL samples of AH were taken from each eye by paracentesis at 4 or 6 h postdose, respectively. In groups 3 and 4, the test article was dosed once daily for 3 or 4 days, respectively, and 100 μL samples of AH were taken 4 h after dosing.

[15] = system: patients; parameters: method as in PMID 25270273; conditions: 0.02% once daily in the evening, Day 7 and 28 morning visits; cited from earlier work
[16] = system: Formosan Rock monkeys; assay: Ocular tolerability (modified Draize, hyperemia score) in monkeys; conditions: 0.01%, 0.02% and 0.04% solutions, once daily for 3 days
[17] = In vitro corneal metabolism, monkey; format: in vitro ADME, cynomolgus monkeys; conditions: corneal tissue punches, 37°C, pH 6.5, read-out: t1/2 of corneal metabolism
Protocol: as §1, §2

[18] = Absorption and distribution of radioactivity after single topical ocular dose; format: in vivo, Dutch Belted rabbits; conditions: male, Dutch Belted, rabbit, in vivo
Protocol: A single topical ocular dose of 0.02% ^14C-netarsudil mesylate (35 μL drop) was administered to both eyes of 3 male Dutch Belted rabbits in each of 7 groups. At 0.25, 0.5, 1, 4, 8, 24, and 48 h postdose, the following samples were harvested from each group: whole blood, derived plasma, AH, vitreous humor, cornea, conjunctiva, lens, iris/ciliary body, retina-choroid-plexus, liver, and kidneys. All samples were assayed for total radioactivity. A study of the same design was conducted for AR-12286, using a single topical ocular dose of 0.5% ^3H-AR-12286 (35 μL drop).

[19] = In vitro corneal metabolism, dog; format: in vitro ADME, beagle dogs; conditions: beagle, corneal tissue punches, 37°C, pH 6.5, read-out: t1/2 of corneal metabolism
Protocol: as §1, §2

T1 sequence (Q9UQM7 whole entry): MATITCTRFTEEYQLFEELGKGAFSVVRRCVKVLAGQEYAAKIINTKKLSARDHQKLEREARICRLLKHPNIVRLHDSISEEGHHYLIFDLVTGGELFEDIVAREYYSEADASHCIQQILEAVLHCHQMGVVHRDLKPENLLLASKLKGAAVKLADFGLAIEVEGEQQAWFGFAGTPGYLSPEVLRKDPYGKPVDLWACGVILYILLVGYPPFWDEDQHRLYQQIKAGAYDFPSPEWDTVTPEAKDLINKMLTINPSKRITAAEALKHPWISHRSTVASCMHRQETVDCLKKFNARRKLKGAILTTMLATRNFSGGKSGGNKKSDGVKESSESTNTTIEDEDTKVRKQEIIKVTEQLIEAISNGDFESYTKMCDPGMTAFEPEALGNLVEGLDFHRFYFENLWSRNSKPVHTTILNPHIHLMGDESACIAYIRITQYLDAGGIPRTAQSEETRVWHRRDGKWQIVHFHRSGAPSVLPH
T2 sequence (Q04759 whole entry): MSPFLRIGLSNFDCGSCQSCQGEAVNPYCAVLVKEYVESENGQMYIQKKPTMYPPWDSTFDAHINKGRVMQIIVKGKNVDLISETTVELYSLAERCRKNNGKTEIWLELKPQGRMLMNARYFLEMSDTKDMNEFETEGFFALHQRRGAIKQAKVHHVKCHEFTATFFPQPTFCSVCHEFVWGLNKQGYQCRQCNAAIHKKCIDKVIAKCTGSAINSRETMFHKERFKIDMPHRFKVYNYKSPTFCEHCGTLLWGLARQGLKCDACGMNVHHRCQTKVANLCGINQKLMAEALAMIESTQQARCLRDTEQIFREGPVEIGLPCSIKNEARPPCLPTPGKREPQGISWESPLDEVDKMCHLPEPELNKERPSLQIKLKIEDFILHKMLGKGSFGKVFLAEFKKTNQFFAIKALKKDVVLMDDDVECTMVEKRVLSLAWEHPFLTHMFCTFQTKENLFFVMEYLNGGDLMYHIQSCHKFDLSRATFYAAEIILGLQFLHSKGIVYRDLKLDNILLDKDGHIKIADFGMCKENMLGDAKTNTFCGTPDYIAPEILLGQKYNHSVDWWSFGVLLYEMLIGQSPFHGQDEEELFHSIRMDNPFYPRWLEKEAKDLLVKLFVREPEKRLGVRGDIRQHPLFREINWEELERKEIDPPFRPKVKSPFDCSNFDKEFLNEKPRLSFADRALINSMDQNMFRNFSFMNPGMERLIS
Chain of norepinephrine transporter (NET) (P23975 whole entry, species assumed): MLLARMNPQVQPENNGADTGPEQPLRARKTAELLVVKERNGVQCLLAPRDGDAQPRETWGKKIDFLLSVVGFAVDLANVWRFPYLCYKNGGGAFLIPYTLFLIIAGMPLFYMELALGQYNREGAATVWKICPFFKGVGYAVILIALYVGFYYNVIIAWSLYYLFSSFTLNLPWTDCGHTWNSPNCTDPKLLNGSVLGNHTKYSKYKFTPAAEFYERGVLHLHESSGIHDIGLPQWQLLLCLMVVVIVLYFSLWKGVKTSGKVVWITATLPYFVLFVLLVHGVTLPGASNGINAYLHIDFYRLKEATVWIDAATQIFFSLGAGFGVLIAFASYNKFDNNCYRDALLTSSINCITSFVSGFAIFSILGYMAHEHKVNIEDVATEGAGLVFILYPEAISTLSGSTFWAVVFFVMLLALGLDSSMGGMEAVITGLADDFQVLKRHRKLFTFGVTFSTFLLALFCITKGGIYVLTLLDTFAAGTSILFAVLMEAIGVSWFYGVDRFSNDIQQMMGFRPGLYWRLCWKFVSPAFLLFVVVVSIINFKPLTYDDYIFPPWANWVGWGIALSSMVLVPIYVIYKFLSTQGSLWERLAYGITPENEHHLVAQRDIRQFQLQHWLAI

## Cc1ccc(C(=O)OCc2ccc([C@@H](CN)C(=O)Nc3ccc4cnccc4c3)cc2)c(C)c1 [Netarsudil]
[1]
  NET inhibitory activity: possesses NET inhibitory activity
[2]
  Ki: 5310 nM
[3]
  Ki: 92 nM
[4]
  IC50: 79 nM
[5]
  half-life at 200 µM: 2.33 h
[6]; 0.005% solution
  maximal IOP reduction: 2.5 ± 0.2 mmHg
[6]; 0.01% solution
  maximal IOP reduction: 4.6 ± 0.2 mmHg
[6]; 0.02% solution
  maximal IOP reduction: 5.0 ± 0.6 mmHg
[6]; 0.04% solution
  maximal IOP reduction: 8.1 ± 0.7 mmHg
[6]; 0.04%, 8 h after dosing on Day 3
  IOP reduction: 8.1 ± 0.7 mmHg
[6]; Day 1
  time of peak IOP-lowering efficacy after dosing: 8 h
[6]; rabbits
  time IOP reductions were sustained after once daily dosing: at least 24 h
[7]; 0.01% solution
  maximal IOP reduction: 4.2 ± 0.2 mmHg
[7]; 0.02% solution
  maximal IOP reduction: 5.8 ± 0.3 mmHg
[7]; 0.04%
  time for which full IOP-lowering effect was maintained after dosing: 24 h
[7]; 0.04% solution
  maximal IOP reduction: 7.5 ± 1.1 mmHg
[7]; 0.04%, 4 h after dosing
  IOP reduction: 7.5 ± 0.7 mmHg
[7]; 0.04%, 24 h after dosing
  IOP reduction: 7.5 ± 1.1 mmHg
[7]; monkeys
  time IOP reductions were sustained after once daily dosing: at least 24 h
[8]
  increase in tonographic outflow facility: 53%
[9]
  half-life at 200 µM: 2.92 h
[10]
  persistence of hyperemia after dosing: 4 to 8 h
[10]; once daily for 3 days
  hyperemia (scored 0 to 3, none to severe): trace (+0.5) to mild hyperemia (+1)
[11]
  IC50: 16 nM
[12]
  induction of fibrogenic markers α-SMA, FSP1 and Collagen I by TGF-β2: abolished the induction of these markers by TGF-β2
[13]
  half-life at 200 µM: 2.6 h
[14]; after topical netarsudil 0.02%, below the limit of detection in all but 1 of the 24 samples
  concentration in AH: < 0.1 ng/mL
[14]; male, New Zealand, rabbit, aqueous humor, topical, 0.02 %, read-out: concentration in AH, single sample above limit of detection
  concentration at 4 h: 1.82 ng/mL
[15]
  patients scored as having no hyperemia or trace hyperemia: 65% to 76
[16]
  adverse effect noted (hyperemia): trace to mild hyperemia was the only adverse effect noted
[17]
  half-life at 200 µM: 1.82 h
[18]
  AH half-life of related radioactivity, longer than that for AR-12286: ~60%
[18]; topical or ocular
  Tmax in AH: 8 h
  terminal elimination half-life (T1/2,e) in AH: 16 to 17 h
[19]
  half-life at 200 µM: 1.63 h
